Experimental data: patent US4801697A, “Physiologically active substance TPI and production thereof” (Toyo Jozo Kabushiki Kaisha, priority 1985, dated 1989)
Converted amounts (≈) assume the structure as drawn.

Experiments:
bovine heart PDE = bovine heart PDE inhibitory action (5'-AMP produced from c-AMP measured by HPLC); format: biochemical; settings: 0.4 mM c-AMP, 30 μg protein PDE, pH 7.5, 30° C., 30 minutes
Experimental: 40 mM Tris-HCl buffer solution (pH 7.5), 2 mM magnesium chloride, 0.4 mM c-AMP, PDE (30 μg protein, Boehringer Mannheim Co.) and TPI are combined to form a reaction mixture (1.0 ml) and the same is incubated at 30° C. for 30 minutes.

mice = experiment: acute toxicity, intraperitoneal injection in mice; format: in vivo; settings: 100 mg/kg intraperitoneally
Solubility = format: physicochemical; settings: for Solubility: insoluble: hexane, benzene and petroleum ether; for Solubility: soluble: lower alcohol such as methanol, ethanol and butanol, ethyl acetate, dimethylsulfoxide, aqueous alkali

| IC50 concentration (bovine heart PDE) | Solubility: insoluble (Solubility) | Solubility: soluble (Solubility) | Solubility: soluble (Solubility; chloroform) | SMILES | deaths (mice) |
| --- | --- | --- | --- | --- | --- |
| 5.4 µg/mL (≈ 8.32 µM) | Insoluble | Soluble | – | CCCCCCCc1cc(OC(=O)c2c(CCCCCCC)cc(O)cc2O[C@@H]2O[C@H](CO)[C@H](O)[C@H](O)[C@H]2O)cc(O)c1C(=O)O [TPI-2] | – |
| 2.8 µg/mL (≈ 4.05 µM) | Insoluble | Soluble | – | CCCCCCCc1cc(OC(=O)c2c(CCCCCCC)cc(O)cc2O[C@@H]2O[C@H](COC(C)=O)[C@@H](O)[C@H](O)[C@H]2O)cc(O)c1C(=O)O [TPI-3] | – |
| 3.5 µg/mL (≈ 5.07 µM) | Insoluble | Soluble | – | CCCCCCCc1cc(OC(=O)c2c(CCCCCCC)cc(O)cc2O[C@@H]2O[C@H](COC(C)=O)[C@H](O)[C@H](O)[C@H]2O)cc(O)c1C(=O)O [TPI-4] | – |
| 2.3 µg/mL (≈ 4.73 µM) | Insoluble | – | Soluble | CCCCCCCc1cc(OC(=O)c2c(O)cc(O)cc2CCCCCCC)cc(O)c1C(=O)O [TPI-5] | – |

The remaining lines, values behind:

| SMILES | IC50 concentration (bovine heart PDE) | Solubility: insoluble (Solubility) | Solubility: soluble (Solubility) | Solubility: soluble (Solubility; chloroform) | deaths (mice) |
| --- | --- | --- | --- | --- | --- |
| COC(=O)C1=C(C)NC(C)=C(C(=O)OCCN(C)Cc2ccccc2)C1c1cccc([N+](=O)[O-])c1 (stereo not shown) [Nicardipine, nicardipine, reference compound] | 6.0 µg/mL (≈ 12.5 µM) | – | – | – | – |
| COc1ccc(Cc2nccc3cc(OC)c(OC)cc23)cc1OC [Papaverine, papaverine, reference compound] | 25 µg/mL (≈ 73.7 µM) | – | – | – | – |
| CCCCCCCc1cc(OC(=O)c2c(CCCCCCC)cc(O)cc2O[C@@H]2O[C@H](CO)[C@@H](O)[C@H](O)[C@H]2O)cc(O)c1C(=O)O [TPI-1] | 2.8 µg/mL (≈ 4.32 µM) | Insoluble | Soluble | – | No deaths occurred |
| Cn1c(=O)c2[nH]cnc2n(C)c1=O [Teophyllin, theophyllin, reference compound] | 470 µg/mL (≈ 2610 µM) | – | – | – | – |
